Laboratory results published in PMC11480993, “Combining Data-Driven and Structure-Based Approaches in Designing Dual PARP1-BRD4 Inhibitors for Breast Cancer Treatment” (Journal of Chemical Information and Modeling, 2024).
Like-named read-outs stand apart in the source and are kept apart here.

What was measured:
[1] = test system: E2F2; assay: Western blot, E2F2 in MCF-7 cells; type: cell-based; settings: MCF-7, 48 h
Experimental: (§1) Following a 48 h treatment, cellular proteins were extracted using RIPA cell lysis buffer containing protease and phosphatase inhibitor cocktail. The protein concentration was assessed by using a BCA assay. Subsequently, equal amounts of these proteins were loaded onto an SDS-PAGE gel and transferred onto a PVDF membrane. The protein-loaded membrane was then blocked using a commercial blocking solution (Beyotime, China) and sequentially incubated with primary and secondary antibodies. Protein bands were visualized using an ECL chemiluminescence kit and quantified using ImageJ software.

[2] = test system: BRD4; assay: Western blot, BRD4 expression in MCF-7 cells; type: cell-based; settings: MCF-7, 48 h treatment
Experimental: as §1

[3] = test system: MCF-7 cells; assay: Cell viability (MTT), MCF-7; type: cell-based; settings: Homo sapiens, MCF7, 96 h; 4-day treatment, wild-type BRCA
Experimental: (§2) MDA-MB-231, MDA-MB-436, and MCF-7 cells were seeded into 96-well plates with the number of 5 × 10^3 in each cell and allowed to incubate for 24 h. Subsequently, various concentrations of the test compounds (ranging from 100 to 0.78 μM with twice gradient dilution) were introduced. After 4 days of incubation, MTT solution was applied, and the cells were incubated for an additional 4 h. Following the removal of the supernatant, the violet crystals were dissolved in 200 μL of DMSO, and the absorbance was measured at 570 nm.

[4] = molecular target: PARP1 (Homo sapiens, UniProt P09874); assay: In vitro PARP1 enzymatic activity (ELISA, biotinylated NAD+, luminescence); type: biochemical
Chain of PARP1 (Homo sapiens, UniProt P09874) (P09874 whole entry): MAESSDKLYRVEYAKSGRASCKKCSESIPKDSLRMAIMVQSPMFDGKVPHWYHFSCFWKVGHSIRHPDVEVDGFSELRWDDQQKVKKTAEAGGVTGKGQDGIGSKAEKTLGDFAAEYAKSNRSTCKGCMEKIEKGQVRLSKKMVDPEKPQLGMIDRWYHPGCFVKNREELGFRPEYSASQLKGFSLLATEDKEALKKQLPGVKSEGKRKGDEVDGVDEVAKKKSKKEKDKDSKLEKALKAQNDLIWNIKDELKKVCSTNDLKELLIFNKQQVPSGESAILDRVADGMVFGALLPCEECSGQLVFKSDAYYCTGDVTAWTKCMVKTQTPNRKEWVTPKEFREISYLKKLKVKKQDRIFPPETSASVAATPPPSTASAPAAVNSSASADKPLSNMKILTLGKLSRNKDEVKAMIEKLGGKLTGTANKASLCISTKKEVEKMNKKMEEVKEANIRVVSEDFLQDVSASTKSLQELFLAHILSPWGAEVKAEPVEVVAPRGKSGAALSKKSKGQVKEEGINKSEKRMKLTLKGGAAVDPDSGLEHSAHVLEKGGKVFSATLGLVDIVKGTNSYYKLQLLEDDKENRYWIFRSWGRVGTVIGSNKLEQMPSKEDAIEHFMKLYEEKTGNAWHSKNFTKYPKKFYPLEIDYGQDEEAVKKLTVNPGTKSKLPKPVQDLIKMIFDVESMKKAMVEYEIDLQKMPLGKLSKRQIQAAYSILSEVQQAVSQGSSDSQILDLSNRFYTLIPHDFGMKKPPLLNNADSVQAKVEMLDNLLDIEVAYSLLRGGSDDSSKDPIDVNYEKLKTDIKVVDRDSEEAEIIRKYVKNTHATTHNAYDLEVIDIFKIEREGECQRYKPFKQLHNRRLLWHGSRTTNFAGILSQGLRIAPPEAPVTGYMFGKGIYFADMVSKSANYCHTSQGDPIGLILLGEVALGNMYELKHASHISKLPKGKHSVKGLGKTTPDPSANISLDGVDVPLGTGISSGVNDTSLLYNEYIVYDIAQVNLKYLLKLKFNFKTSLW
Experimental: The inhibition of the tested compounds on PARP1 enzymatic activity was determined by ELISA in 96-well plates. Each well was precoated with histone (20 μg/mL) diluted in 100 μL of PBS buffer (10 mM NaH2PO4, 100 mM Na2HPO4, 150 mM NaCl, pH 7.4) by incubation at 4 °C overnight. […] The reaction was initiated by the addition of 20 μL of PARP1 (50 ng/well) at 30 °C for 1 h. Then the reaction solution was added to 50 μL of streptavidin conjugated HRP. The assay was performed at 30 °C for an additional 30 min. Finally, 100 μL of solution (H2O2 and luminol in citrate buffer 0.1 M, pH 5.4) was added and luminescent signal was measured using a multiwell spectrophotometer (Molecular Devices SpectraMax M5 microplate reader).

[5] = molecular target: BRD4 BD1 (Homo sapiens, UniProt O60885); assay: BRD TR-FRET assay, BRD4 BD1; type: binding
Experimental: (§3) The assay was performed by TR-FRET technology using a BRD and its corresponding ligand (BET). The TR-FRET signal from the assay is correlated with the amount of ligand binding to the bromodomain. All of the binding reactions were conducted at room temperature. The 20 μL reaction mixture in Assay Buffer contains either bromodomains, BET Ligand, and the indicated amount of inhibitor. For the negative control (blank), 5 μL of the assay buffer was added instead of the BET ligand. The reaction mixture was incubated for 120 min. After the incubation with the ligand, the TR-FRET signal was measured using a Tecan Infinite M1000 plate reader.

[6] = molecular target: BRD4 BD2 (Homo sapiens, UniProt O60885); assay: BRD TR-FRET assay, BRD4 BD2; type: binding
Experimental: as §3

[7] = test system: Bcl-2; assay: Western blot, Bcl-2 in MCF-7 cells; type: cell-based; settings: MCF-7, 48 h, dose-dependent
Experimental: as §1

[8] = molecular target: BRD2 (Homo sapiens, UniProt P25440); assay: BRD TR-FRET assay, BRD2; type: binding
Chain of BRD2 (P25440 whole entry): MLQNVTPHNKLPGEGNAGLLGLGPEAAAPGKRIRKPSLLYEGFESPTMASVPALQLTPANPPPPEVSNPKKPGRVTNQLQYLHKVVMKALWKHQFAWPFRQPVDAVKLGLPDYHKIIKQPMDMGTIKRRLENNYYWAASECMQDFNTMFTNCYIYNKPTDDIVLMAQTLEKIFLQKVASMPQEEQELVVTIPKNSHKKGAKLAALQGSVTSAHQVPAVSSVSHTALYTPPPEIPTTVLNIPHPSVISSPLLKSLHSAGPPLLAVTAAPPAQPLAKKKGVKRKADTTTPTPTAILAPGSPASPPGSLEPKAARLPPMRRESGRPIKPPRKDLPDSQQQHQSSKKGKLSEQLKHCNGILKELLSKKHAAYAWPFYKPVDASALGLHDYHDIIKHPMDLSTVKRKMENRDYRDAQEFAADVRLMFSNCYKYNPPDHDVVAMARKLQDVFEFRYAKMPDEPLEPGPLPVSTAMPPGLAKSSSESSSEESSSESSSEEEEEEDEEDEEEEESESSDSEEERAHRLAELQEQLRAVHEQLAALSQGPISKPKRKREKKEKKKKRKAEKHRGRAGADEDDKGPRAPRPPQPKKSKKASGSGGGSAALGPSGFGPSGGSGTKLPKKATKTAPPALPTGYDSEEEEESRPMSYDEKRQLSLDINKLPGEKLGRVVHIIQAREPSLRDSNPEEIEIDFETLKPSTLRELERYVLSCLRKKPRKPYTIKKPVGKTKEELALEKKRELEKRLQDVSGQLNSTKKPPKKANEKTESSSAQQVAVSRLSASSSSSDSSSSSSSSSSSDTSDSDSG
Experimental: as §3

[9] = test system: CDK6; assay: Western blot, CDK6 in MCF-7 cells; type: cell-based; settings: MCF-7, 48 h
Experimental: as §1

[10] = molecular target: BRD1 (Homo sapiens, UniProt O95696); assay: BRD TR-FRET assay, BRD1; type: binding
Chain of BRD1 (O95696 whole entry): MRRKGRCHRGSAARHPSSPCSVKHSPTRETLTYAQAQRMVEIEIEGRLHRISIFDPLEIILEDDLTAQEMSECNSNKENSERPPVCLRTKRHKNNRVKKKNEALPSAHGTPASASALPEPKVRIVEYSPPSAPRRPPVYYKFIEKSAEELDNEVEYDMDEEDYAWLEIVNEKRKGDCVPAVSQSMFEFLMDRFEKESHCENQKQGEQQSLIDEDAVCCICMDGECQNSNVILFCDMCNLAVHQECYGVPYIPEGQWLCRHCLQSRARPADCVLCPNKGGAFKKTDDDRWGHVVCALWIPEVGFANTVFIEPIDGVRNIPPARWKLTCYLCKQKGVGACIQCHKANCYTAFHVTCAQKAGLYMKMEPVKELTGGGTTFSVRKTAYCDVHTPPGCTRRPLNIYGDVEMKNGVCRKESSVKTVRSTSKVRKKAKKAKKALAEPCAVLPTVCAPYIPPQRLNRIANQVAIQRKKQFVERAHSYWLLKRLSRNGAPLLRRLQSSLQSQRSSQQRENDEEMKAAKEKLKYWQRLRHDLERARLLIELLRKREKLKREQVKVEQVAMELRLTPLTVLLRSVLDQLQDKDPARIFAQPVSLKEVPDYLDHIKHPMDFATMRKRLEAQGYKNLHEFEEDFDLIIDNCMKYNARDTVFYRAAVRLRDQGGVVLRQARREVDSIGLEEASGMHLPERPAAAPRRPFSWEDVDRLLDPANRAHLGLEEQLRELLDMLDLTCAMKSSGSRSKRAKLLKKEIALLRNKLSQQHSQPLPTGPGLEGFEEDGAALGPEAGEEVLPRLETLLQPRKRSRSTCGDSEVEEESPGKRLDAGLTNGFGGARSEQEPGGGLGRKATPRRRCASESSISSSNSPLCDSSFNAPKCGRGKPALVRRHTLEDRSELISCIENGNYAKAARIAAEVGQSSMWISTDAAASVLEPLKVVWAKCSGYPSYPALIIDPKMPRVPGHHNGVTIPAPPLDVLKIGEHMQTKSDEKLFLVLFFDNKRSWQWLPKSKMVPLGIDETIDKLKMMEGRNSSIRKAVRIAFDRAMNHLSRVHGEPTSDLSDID
Experimental: as §3

[11] = test system: PARP1; assay: Western blot, PARP1 expression in MCF-7 cells; type: cell-based; settings: MCF-7, 48 h treatment
Experimental: as §1

[12] = test system: γH2AX; assay: Western blot, γH2AX in MCF-7 cells; type: cell-based; settings: MCF-7, 48 h
Experimental: as §1

[13] = test system: MDA-MB-436 cells; assay: Cell viability (MTT), MDA-MB-436; type: cell-based; settings: Homo sapiens, MDA-MB-436, 96 h; 4-day treatment, BRCA mutant
Experimental: as §2

[14] = test system: cleaved Caspase 3; assay: Western blot, cleaved Caspase 3 in MCF-7 cells; type: cell-based; settings: MCF-7, 48 h, dose-dependent
Experimental: as §1

[15] = test system: MCF-7 cells; assay: Colony formation assay; type: cell-based; settings: seven-day exposure
Experimental: The cells were placed in a 6-well plate at a density of approximately 500 cells per well and allowed to incubate for 24 h. Subsequently, the cells were exposed to the specified concentrations of test compounds and a control vehicle for a duration of 7 days. Following this treatment period, the cells were fixed using a 4% formaldehyde solution, stained with crystal violet, and then imaged.

[16] = test system: Rad51; assay: Western blot, Rad51 in MCF-7 cells; type: cell-based; settings: MCF-7, 48 h
Experimental: as §1

[17] = test system: MCF-7 cells; assay: Cell apoptosis detection (Annexin V-FITC/PI flow cytometry); type: cell-based; settings: 2 μM, MCF-7, dose-dependent
Experimental: Cell apoptosis was assessed using the Annexin V-FITC/PI apoptosis detection kit. Following a 24 h treatment, cells were harvested and rinsed with PBS. Subsequently, the gathered cells were stained in accordance with the manufacturer’s guidelines and analyzed using BD FACSCelesta flow cytometry (New York, USA). FlowJo_V10 software was employed for data analysis.

[18] = test system: L02 (normal human liver cell); assay: Cytotoxicity against non-tumor cells, L02; type: cell-based; settings: 96 h, 4-day treatment
Source text: To further establish HF4’s advantage, we employed a web-based in silico cytotoxicity prediction tool (https://www.way2drug.com/clc-pred/index.php), encompassing the prediction against 391 tumor and 47 normal human cell lines,[47] to predict the cytotoxicity of HF4 against nontumor cell lines. […] The absence of nontumor cell lines among the top-ranked ones indicates a limited impact on normal cell line. When threshold of ≥0.15 was applied, among 50 predictions, only a single normal cell line (HEK293) was present in the list, with a predicted probability value below 0.2. We further reinforced the safety profile of HF4 by conducting experimental safety assessments on two normal cell lines. […] In summary, we conducted both computational safety predictions and experimental evaluations on normal cell lines to strengthen the assurance of HF4’s safety profile.
Cytotoxicity of HF4 against non-tumor cells
Figure S6. Cytotoxicity of HF4 against non-tumor cells during a 4-day treatment.
(1 picture or pasted object on this page, not shown here)

[19] = test system: Caspase 3; assay: Western blot, Caspase 3 in MCF-7 cells; type: cell-based; settings: MCF-7, 48 h, dose-dependent
Experimental: as §1

[20] = test system: MDA-MB-231 cells; assay: Cell viability (MTT), MDA-MB-231; type: cell-based; settings: Homo sapiens, MDA-MB-231, 96 h; 4-day treatment, wild-type BRCA
Experimental: as §2

[21] = molecular target: BRD3 (Homo sapiens, UniProt Q15059); assay: BRD TR-FRET assay, BRD3; type: binding
Chain of BRD3 (Q15059 whole entry): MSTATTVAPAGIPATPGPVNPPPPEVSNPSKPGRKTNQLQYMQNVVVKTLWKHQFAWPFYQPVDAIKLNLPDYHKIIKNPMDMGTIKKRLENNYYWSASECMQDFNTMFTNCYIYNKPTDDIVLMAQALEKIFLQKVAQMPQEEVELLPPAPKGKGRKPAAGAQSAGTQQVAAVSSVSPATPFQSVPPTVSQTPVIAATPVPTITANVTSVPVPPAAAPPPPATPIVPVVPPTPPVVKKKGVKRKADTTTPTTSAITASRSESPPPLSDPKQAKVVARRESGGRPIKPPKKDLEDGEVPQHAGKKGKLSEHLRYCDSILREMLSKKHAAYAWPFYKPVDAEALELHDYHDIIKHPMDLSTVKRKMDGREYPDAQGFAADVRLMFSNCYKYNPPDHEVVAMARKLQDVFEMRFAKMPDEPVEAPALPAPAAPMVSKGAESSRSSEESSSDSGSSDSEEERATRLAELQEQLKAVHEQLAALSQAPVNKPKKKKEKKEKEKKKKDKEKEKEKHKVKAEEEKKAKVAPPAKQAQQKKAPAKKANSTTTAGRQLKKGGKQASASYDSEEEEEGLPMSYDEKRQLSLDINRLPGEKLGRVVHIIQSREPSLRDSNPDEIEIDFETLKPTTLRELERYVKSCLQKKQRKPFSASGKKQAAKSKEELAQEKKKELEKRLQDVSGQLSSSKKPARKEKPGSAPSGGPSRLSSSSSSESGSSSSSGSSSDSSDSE
Experimental: as §3

IC50 [3]: 2100 nM
IC50 [4]: 2020 ± 683 nM
decrease in effectiveness against PARP1, tricyclic to bicyclic scaffold ([4]; HF4 vs HF1): approximately 20 fold
ligand efficiency index against PARP1 ([4]; pIC50 divided by HAC, HAC = 25): 0.23
IC50 ([4]; value of the text): ~2000 nM
IC50 [5]: 204 ± 68 nM
selectivity BRD4 BD1 over BRD4 BD2 ([5]; IC50 BD1 vs BD2): four times more potent
IC50 [6]: 801 ± 238 nM
IC50 [8]: 6830 ± 2200 nM
IC50 [10]: 55600 ± 13900 nM
IC50 [13]: 4900 nM
IC50 [20]: 2200 nM
IC50 [21]: 4790 ± 1360 nM
Compound: CCc1cc2cc(NS(=O)(=O)c3ccc(F)c(C)c3)ccc2[nH]c1=O [HF4, N-(3-ethyl-2-oxo-1,2-dihydroquinolin-6-yl)-4-fluoro-3-methylbenzenesulfonamide]
E2F2 expression [1]: suppressed
BRD4 expression [2]: an increase but to a much lesser extent than JQ1
Bcl-2 expression [7]: significantly downregulated
CDK6 expression [9]: dose-dependently lowered
PARP1 expression [11]: limited effect
levels of γH2AX [12]: dose-dependent upregulation
cleaved Caspase 3 expression [14]: upregulating
colony formation ([15]; 2 μM): marked decline in colony formation
colony formation ([15]; 8 μM): nearly no visible colonies
expression of Rad51 [16]: significantly reduced
apoptotic cells [17]: substantial increase in apoptotic cells
IC50 [18]: 26300 ± 6200 nM
Caspase 3 expression [19]: significantly downregulated
